In patent publication US20220332700A1, “NOVEL APOPTOSIS SIGNAL-REGULATING KINASE 1 INHIBITORS” (MANKIND PHARMA LTD, priority 2019, published 2022):

Experiments:
recombinant ASK1 = target: T1, recombinant ASK1 (Homo sapiens, UniProt Q99683); test: ASK1 Biochemical Assay (HTRF KinEASE-STK S3); details: ATP 100 μM; read-out: Biochemical Assay IC50
T1 construct: purchased Carna Biosciences
Method in brief: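 Recombinant ASK1 (5 ng) preincubated with compound 1 h at 23 °C in MOPS pH 7 buffer with Mg-acetate, DTT, NP40, glycerol, BSA and 1% DMSO. Inhibition calculated against vehicle after substrate-blank subtraction.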

Human ASK1 = target: T2, Human ASK1 (Homo sapiens, UniProt Q99683); test: ASK1 Cell Based Assay (phospho p38 read out in hASK1 transfected HEK293T-AP1 cells); details: HEK293T-AP1 cells, 1 mM hydrogen peroxide, phospho p38; read-out: Cell Based Assay IC50
T2 construct: expressed in transfected cells; host or cells: HEK293T-AP1
T2 sequence (Q99683 1-1374): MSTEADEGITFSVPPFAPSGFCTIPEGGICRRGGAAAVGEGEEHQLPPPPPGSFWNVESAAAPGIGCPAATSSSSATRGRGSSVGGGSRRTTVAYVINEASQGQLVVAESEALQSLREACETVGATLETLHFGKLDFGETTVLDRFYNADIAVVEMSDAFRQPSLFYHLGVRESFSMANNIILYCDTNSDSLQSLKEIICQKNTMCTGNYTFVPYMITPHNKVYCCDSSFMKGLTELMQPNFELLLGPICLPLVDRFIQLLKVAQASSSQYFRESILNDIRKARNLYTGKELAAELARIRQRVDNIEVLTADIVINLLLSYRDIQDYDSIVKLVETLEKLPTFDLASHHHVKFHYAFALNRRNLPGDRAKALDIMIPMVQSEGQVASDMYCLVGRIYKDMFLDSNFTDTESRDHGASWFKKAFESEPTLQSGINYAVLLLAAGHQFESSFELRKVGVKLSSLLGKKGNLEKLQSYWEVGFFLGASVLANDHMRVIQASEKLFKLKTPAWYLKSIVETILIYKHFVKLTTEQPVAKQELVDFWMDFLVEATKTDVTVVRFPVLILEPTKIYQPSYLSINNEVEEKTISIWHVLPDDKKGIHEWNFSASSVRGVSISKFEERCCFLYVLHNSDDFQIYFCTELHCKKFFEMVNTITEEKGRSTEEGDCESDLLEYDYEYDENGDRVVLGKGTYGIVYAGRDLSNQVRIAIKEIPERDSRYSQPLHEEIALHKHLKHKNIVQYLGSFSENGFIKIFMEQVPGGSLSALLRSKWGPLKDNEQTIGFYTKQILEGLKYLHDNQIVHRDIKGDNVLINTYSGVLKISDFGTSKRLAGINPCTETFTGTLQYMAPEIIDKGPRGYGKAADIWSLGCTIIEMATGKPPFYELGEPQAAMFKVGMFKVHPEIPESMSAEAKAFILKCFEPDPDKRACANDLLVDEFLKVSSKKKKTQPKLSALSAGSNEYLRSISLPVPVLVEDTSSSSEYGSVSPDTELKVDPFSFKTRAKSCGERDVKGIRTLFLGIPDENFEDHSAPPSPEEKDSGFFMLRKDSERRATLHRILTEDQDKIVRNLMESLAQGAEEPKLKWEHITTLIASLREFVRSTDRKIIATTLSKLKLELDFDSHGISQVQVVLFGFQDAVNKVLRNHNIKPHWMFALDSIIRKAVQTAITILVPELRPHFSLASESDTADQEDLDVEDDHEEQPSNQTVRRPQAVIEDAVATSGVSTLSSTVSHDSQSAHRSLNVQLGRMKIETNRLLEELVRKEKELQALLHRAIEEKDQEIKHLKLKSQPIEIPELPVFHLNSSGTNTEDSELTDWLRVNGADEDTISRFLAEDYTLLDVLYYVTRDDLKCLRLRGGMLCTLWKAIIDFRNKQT
Description: HEK293T-AP1 cells were seeded at a density of 20,000 cells per well in a poly-d-lysine coated 96 well microplate. Next day, cells were transfected with hASK1-pcDNA3.1 vector using lipofectamine 3000. After 24 hours of transfection, cells were treated with compounds for 24 hours in assay medium. DMSO was used as a vehicle control with a final DMSO concentration of 0.2%. On 4th day, medium was discarded and cells were activated with 1 mM hydrogen peroxide for 1 hour in the presence of compounds. Cells were lysed for 1 hour with 1× lysis buffer on a shaker at 100 rpm. Sixteen microliters of lysate was collected into a 384 well small volume plate. Phospho p38 levels in the lysate was detected by using CisbioPhospho-p38 MAPK (Thr180/Tyr182) #64P38PEG.Four microliters of phospho p38 antibodies labelled with europium cryptate and d2 acceptor, were added to the lysate and incubated overnight. TR-FRET was measured at an excitation of 335 nm and emission was measured at 615 nm and 665 nm in BMG FLUOstar multimode reader.
Compounds were assessed for ASK1 inhibition based on phospho p38 read out. […] Background control values were susbtracted from vehicle control as well as from compound treated wells.

Row | SMILES | IC50 (recombinant ASK1) | IC50 (Human ASK1)
1 | CC(C)n1cnnc1-c1cccc(N2CCN(c3ccc(NS(C)(=O)=O)cc3)C2=O)n1 [Example 1044, N-(4-(3-(6-(4-isopropyl-4H-1,2,4-triazol-3-yl)pyridin-2-yl)-2-oxoimidazolidin-1-yl)phenyl)methanesulfonamide] | < 100 nM | > 1000 nM
2 | CNS(=O)(=O)c1ccc(N2CCN(c3cccc(-c4nncn4C(C)C)n3)C2=O)cc1 [Example 1045, 4-(3-(6-(4-isopropyl-4H-1,2,4-triazol-3-yl)pyridin-2-yl)-2-oxoimidazolidin-1-yl)-N-methylbenzenesulfonamide] | < 100 nM | < 1000 nM
3 | CC(C)n1cnnc1-c1cccc(N2CCN(c3ccc(CS(C)(=O)=O)cc3)C2=O)n1 [Example 1047, 1-(6-(4-isopropyl-4H-1,2,4-triazol-3-yl)pyridin-2-yl)-3-(4-((methylsulfonyl)methyl)phenyl)imidazolidin-2-one] | < 100 nM | > 1000 nM
4 | CC(C)n1cnnc1-c1cccc(N2CCN(c3ccc(C(=O)NC4CC4)cc3)C2=O)n1 [Example 1048, N-cyclopropyl-4-(3-(6-(4-isopropyl-4H-1,2,4-triazol-3-yl)pyridin-2-yl)-2-oxoimidazolidin-1-yl)benzamide] | < 100 nM | > 1000 nM
5 | COCCS(=O)(=O)c1ccc(N2CCN(c3cccc(-c4nncn4C(C)C)n3)C2=O)cc1 [Example 1050, 1-(4-(2-methoxyethylsulfonyl)phenyl)-3-(6-(4-isopropyl-4H-1,2,4-triazol-3-yl)pyridin-2-yl)imidazolidin-2-one] | < 100 nM | > 1000 nM
6 | CC(C)n1cnnc1-c1cccc(N2CCN(c3ccc(C(O)C4CC4)cc3)C2=O)n1 (centres unmarked) [Example 1051, 1-(4-(cyclopropyl(hydroxy)methyl)phenyl)-3-(6-(4-isopropyl-4H-1,2,4-triazol-3-yl)pyridin-2-yl)imidazolidin-2-one] | < 100 nM | < 1000 nM
7 | CC(C)n1cnnc1-c1cccc(N2CCN(c3ccc(NC(C(N)=O)C4CC4)cc3)C2=O)n1 (centres unmarked) [Example 1052, 2-(4-(3-(6-(4-isopropyl-4H-1,2,4-triazol-3-yl)pyridin-2-yl)-2-oxoimidazolidin-1-yl)phenylamino)-2-cyclopropylacetamide] | < 100 nM | > 1000 nM
8 | CC(CC#N)n1cnnc1-c1cccc(N2CCN(c3ccc(S(C)(=O)=O)cc3)C2=O)n1 (centres unmarked) [Example 1053, 3-(3-(6-(3-(4-(methylsulfonyl)phenyl)-2-oxoimidazolidin-1-yl)pyridin-2-yl)-4H-1,2,4-triazol-4-yl)butanenitrile] | < 100 nM | > 1000 nM
9 | COc1cc(S(C)(=O)=O)c(C)cc1N1CCN(c2cccc(-c3nncn3C(C)C)n2)C1=O [Example 1055, 1-(6-(4-isopropyl-4H-1,2,4-triazol-3-yl)pyridin-2-yl)-3-(2-methoxy-5-methyl-4-(methylsulfonyl)phenyl)imidazolidin-2-one] | < 100 nM | > 1000 nM
10 | CC(C)n1cnnc1-c1cccc(N2CCN(c3ccc(NC(C#N)C4CC4)cc3)C2=O)n1 (centres unmarked) [Example 1056, 2-(4-(3-(6-(4-isopropyl-4H-1,2,4-triazol-3-yl)pyridin-2-yl)-2-oxoimidazolidin-1-yl)phenylamino)-2-cyclopropylacetonitrile] | > 100 nM | > 1000 nM
11 | CC(CO)n1cnnc1-c1cccc(N2CCN(c3ccc(S(C)(=O)=O)cc3)C2=O)n1 (centres unmarked) [Example 1057, 1-(6-(4-(1-hydroxypropan-2-yl)-4H-1,2,4-triazol-3-yl)pyridin-2-yl)-3-(4-(methylsulfonyl)phenyl)imidazolidin-2-one] | < 100 nM | > 1000 nM

Now from value to compound:

Row | IC50 (recombinant ASK1) | IC50 (Human ASK1) | SMILES
12 | < 100 nM | < 1000 nM | CC(C)n1cnnc1-c1cccc(N2CCN(c3ccc(S(=O)(=O)C4CC4)cc3)C2=O)n1 [Example 1025, 1-(4-(cyclopropylsulfonyl)phenyl)-3-(6-(4-isopropyl-4H-1,2,4-triazol-3-yl)pyridin-2-yl)imidazolidin-2-one]
13 | < 100 nM | > 1000 nM | Cc1cc(N2CCN(c3cccc(-c4nncn4C(C)C)n3)C2=O)ccc1S(C)(=O)=O [Example 1029, 1-(6-(4-isopropyl-4H-1,2,4-triazol-3-yl)pyridin-2-yl)-3-(3-methyl-4-(methylsulfonyl)phenyl)imidazolidin-2-one]
14 | < 100 nM | > 1000 nM | CC(C)n1cnnc1-c1cccc(N2CCN(c3ccc(S(C)(=O)=O)cc3F)C2=O)n1 [Example 1032, 1-(2-fluoro-4-(methylsulfonyl)phenyl)-3-(6-(4-isopropyl-4H-1,2,4-triazol-3-yl)pyridin-2-yl)imidazolidin-2-one]
15 | < 100 nM | > 1000 nM | CC(C)n1cnnc1-c1cccc(N2CCN(c3ccncc3)C2=O)n1 [Example 1034, 1-(6-(4-isopropyl-4H-1,2,4-triazol-3-yl)pyridin-2-yl)-3-(pyridin-4-yl)imidazolidin-2-one]
16 | < 100 nM | > 10000 nM | CC(C)n1cnnc1-c1cccc(N2CCN(c3ccc(C#N)cc3)C2=O)n1 [Example 1035, 4-(3-(6-(4-isopropyl-4H-1,2,4-triazol-3-yl)pyridin-2-yl)-2-oxoimidazolidin-1-yl)benzonitrile]
17 | < 100 nM | < 1000 nM | CC(C)n1cnnc1-c1cccc(N2CCN(c3ccc(-n4ccnc4)cc3)C2=O)n1 [Example 1036, 1-(4-(1H-imidazol-1-yl)phenyl)-3-(6-(4-isopropyl-4H-1,2,4-triazol-3-yl)pyridin-2-yl)imidazolidin-2-one]
18 | < 100 nM | < 1000 nM | CC(C)n1cnnc1-c1cccc(N2CCN(c3ccc(C(=O)C4CC4)cc3)C2=O)n1 [Example 1037, 1-(4-(cyclopropanecarbonyl)phenyl)-3-(6-(4-isopropyl-4H-1,2,4-triazol-3-yl)pyridin-2-yl)imidazolidin-2-one]
19 | < 100 nM | < 1000 nM | CC(C)n1cnnc1-c1cccc(N2CCN(c3ccc(S(C)(=O)=O)c(F)c3)C2=O)n1 [Example 1038, 1-(3-fluoro-4-(methylsulfonyl)phenyl)-3-(6-(4-isopropyl-4H-1,2,4-triazol-3-yl)pyridin-2-yl)imidazolidin-2-one]
20 | < 100 nM | > 1000 nM | COc1ccc(N2CCN(c3cccc(-c4nncn4C(C)C)n3)C2=O)cc1 [Example 1039, 1-(6-(4-isopropyl-4H-1,2,4-triazol-3-yl)pyridin-2-yl)-3-(4-methoxyphenyl)imidazolidin-2-one]
21 | < 100 nM | > 10000 nM | CC(C)n1cnnc1-c1cccc(N2CCN(c3ccc(-n4cnc(C5CC5)c4)cc3)C2=O)n1 [Example 1040, 1-(4-(4-cyclopropyl-1H-imidazol-1-yl)phenyl)-3-(6-(4-isopropyl-4H-1,2,4-triazol-3-yl)pyridin-2-yl)imidazolidin-2-one]
22 | < 100 nM | > 1000 nM | CC(C)n1cnnc1-c1cccc(N2CCN(c3ccc(N(C)C)cc3)C2=O)n1 [Example 1041, 1-(4-(dimethylamino)phenyl)-3-(6-(4-isopropyl-4H-1,2,4-triazol-3-yl)pyridin-2-yl)imidazolidin-2-one]
